Reference: patent publication US9447040B2, “Tricyclic compounds, compositions comprising them and uses thereof” (YISSUM RESEARCH DEVELOPMENT COMPANY OF THE HEBREW …, priority 2011, dated 2016)
“And” between values parts separate entries of the source, which are not always exact repeats. Equal values may be shown once. “Also recorded” adds a separate entry of the source.

Key:
[1] = test system: abdominal adipose tissue; experiment: Intraperitoneal (i.p.) injection to mice, gross pathology and abdominal fat; assay type: in vivo
Protocol: 42 wks old male mice (35-42 g body wt.) were i.p. injected with either vehicle (=Control, 10 mice) or with MTK-012 dissolved in that vehicle (10 mice).
Vehicle composition: aqueous solution of 4% Tween20 (Sigma, P7949) and 20% Propylene-Glycol (Sigma, P4347).
MTK-012 was dissolved in vehicle composition at a final concentration of 5 mg/ml.
The mice were initially (t=0) injected a dose of 20 mg/kg, or the equivalent volume of vehicle to the controls (solid arrow in FIG. 1). Three weeks later the mice were injected a double dose of 40 mg/kg of MTK-012 or 40 mg/kg of vehicle (broken arrow in FIG. 1).
Body weight was measured once a week; the results are shown in FIG. 1 and expressed as the % change in body weight relative to the body weight on day 0.
At t=6 wks the animals were sacrificed and dissected for gross pathology.

[2] = test system: nap WAT; experiment: Intra-nap fat-pad injection to Psammomys on high-fat diet, nap WAT; assay type: in vivo
Protocol: Ten 2-month old female pasmmomys were subjected to high-fat diet for 5 weeks prior to commencement of experiment.
0.1 ml vehicle (2.3% sodium decanoate (C10, Sigma, C4151), 2.3% sodium dodecanoate (C12, Sigma, L9755), 10% Solutol HS 15 (BASF, cat#06466701), 40% Propylene-Glycol (Sigma, P4347) and 45% Triacetin (Aldrich, cat#525073))
0.1 ml MTK-012 (concentration of 4 mg/ml in above vehicle).
0.1 ml MTK-013 (concentration of 4 mg/ml in above vehicle).
Intra nap fat-pad injections of each composition were administered to animals in each treatment groups (3, 3, and 4 animals in each treatment group respectively), twice a week for 2 weeks, while on high-fat diet. All animals were sacrificed after 4 days from last injection.
Table 1 below provides the results of nap WAT weight after 4 days from treatment.

[3] = biological target: protein kinase CDC42-binding-protein-kinase-alpha (CDC42BPA or MRCKA) (Homo sapiens, UniProt Q5VT25); experiment: screening against 191 different protein kinases; assay type: biochemical; conditions: screened against 191 different protein kinases
[4] = test system: s.c. adipose tissue; experiment: Single subcutaneous (s.c.) injection to rats, s.c. fat; assay type: in vivo, SD male rats; conditions: single s.c. 25 mg/kg at 5 sites on left side, examined after 3 weeks
Protocol: SD male rats of about 400 g body weight were s.c. injected once (t=0) following light anesthesia with Ketamine-Xylazine.
MTK-012, at a final concentration of 10 mg/ml, was dissolved in a vehicle containing: 2.3% sodium decanoate (C10, Sigma, C4151), 2.3% sodium dodecanoate (C12, Sigma, L9755), 10% Solutol HS 15 (BASF, cat#06466701), 40% Propylene-Glycol (Sigma, P4347) and 45% Triacetin (Aldrich, cat#525073).
The injection of 1 ml MTK-012 (=25 mg/kg) was performed as follows: the left side of the rats body was shaved and s.c. injections, 0.2 ml each, were administered at 5 sites, equally distributed along the left side of the rats. The rats were sacrificed after 3 weeks and inner part of their skin was examined. It is evident that the s.c. adipose tissue was reduced (visibly shown) in the treated rats (FIGS. 3B and 3D), as manifested by the exposure of the underneath blood vessels, as compared with the same anatomical area in FIGS. 3A and 3C. It should be noted that although the injection was performed unilaterally, the effect expand to the entire subcutis.

Sequence of protein kinase CDC42-binding-protein-kinase-alpha (CDC42BPA or MRCKA) (Q5VT25 whole entry): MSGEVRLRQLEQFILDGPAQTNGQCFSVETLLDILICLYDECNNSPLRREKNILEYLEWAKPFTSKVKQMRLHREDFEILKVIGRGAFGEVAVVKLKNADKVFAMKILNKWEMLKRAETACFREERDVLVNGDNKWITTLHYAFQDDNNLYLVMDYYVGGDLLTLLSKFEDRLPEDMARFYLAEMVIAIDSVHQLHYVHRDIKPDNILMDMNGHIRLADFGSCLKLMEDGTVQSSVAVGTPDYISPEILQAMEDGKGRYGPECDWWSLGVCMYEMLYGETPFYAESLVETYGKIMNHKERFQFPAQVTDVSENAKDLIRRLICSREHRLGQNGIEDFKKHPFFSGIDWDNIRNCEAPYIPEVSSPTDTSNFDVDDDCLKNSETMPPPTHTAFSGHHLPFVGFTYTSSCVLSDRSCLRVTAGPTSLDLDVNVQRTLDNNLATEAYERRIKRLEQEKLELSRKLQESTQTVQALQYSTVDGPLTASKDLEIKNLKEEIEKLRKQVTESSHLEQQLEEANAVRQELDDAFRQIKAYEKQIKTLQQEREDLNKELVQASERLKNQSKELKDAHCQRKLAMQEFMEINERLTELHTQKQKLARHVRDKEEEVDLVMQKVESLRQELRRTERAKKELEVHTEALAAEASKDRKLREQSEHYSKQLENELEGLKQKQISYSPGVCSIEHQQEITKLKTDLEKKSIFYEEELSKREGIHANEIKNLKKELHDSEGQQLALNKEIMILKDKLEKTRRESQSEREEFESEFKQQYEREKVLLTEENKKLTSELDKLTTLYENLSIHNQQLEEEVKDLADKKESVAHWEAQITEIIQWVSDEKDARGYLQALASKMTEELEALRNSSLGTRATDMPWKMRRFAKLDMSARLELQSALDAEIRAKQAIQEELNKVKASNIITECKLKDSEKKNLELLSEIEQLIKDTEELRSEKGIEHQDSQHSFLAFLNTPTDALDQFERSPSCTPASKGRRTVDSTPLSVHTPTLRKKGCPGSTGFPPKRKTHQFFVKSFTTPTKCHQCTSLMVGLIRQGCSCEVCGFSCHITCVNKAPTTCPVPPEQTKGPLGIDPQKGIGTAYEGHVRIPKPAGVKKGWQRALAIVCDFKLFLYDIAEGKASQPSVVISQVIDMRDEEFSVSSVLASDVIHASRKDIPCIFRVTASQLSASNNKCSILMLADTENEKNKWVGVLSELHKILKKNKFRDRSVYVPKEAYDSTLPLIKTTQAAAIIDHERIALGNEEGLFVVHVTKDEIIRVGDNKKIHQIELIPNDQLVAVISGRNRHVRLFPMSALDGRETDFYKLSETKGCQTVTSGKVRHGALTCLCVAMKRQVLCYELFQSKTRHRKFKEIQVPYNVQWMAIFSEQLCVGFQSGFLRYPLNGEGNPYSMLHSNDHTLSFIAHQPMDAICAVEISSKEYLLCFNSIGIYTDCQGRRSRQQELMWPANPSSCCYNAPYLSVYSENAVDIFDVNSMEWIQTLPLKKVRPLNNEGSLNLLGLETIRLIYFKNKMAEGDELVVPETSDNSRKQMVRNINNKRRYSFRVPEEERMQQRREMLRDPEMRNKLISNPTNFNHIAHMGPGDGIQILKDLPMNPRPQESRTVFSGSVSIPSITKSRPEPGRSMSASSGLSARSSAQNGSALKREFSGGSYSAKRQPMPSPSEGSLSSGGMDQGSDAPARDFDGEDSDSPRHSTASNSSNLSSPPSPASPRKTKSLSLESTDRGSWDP

general condition of treated animals ([1]; 42 wks old male mice, i.p. 20 mg/kg at t=0 and 40 mg/kg three weeks later): well and active, similar to the controls
gross pathology, changes other than adipose tissue ([1]; mice sacrificed at t=6 wks, i.p. 20 mg/kg then 40 mg/kg): No apparent change
inhibition of protein kinase CDC42BPA (MRCKA) in screen [3]: significantly selective inhibition
SMILES: C[N+](C)(C)CCCCCn1c2ccc(Br)cc2c2cc(Br)ccc21.[Cl-] [MTK-012, 5-(3,6-dibromo-9H-carbazol-9-yl)-N,N,N-trimethylpentan-1-aminium chloride]
abdominal adipose tissue / abdominal fat-mass ([1]; mice at t=6 wks, i.p. 20 mg/kg then 40 mg/kg, vs vehicle control): reduction in abdominal fat-mass; also recorded: ablation of the abdominal adipose tissue
Nap WAT (g), single animals ([2]; 0.1 ml of 4 mg/ml intra nap fat-pad, twice a week for 2 weeks, 4 days after last injection): 3.7 g and 4.1 g and 4.6 g and 3.0 g
Nap WAT Average (g) ± SEM ([2]; 0.1 ml of 4 mg/ml intra nap fat-pad, twice a week for 2 weeks, 4 days after last injection, vehicle 5.30 ± 0.21): 3.85 ± 0.34 g
reduction in WAT as compared with vehicle ([2]; nap WAT weight 4 days after treatment): significant reduction
s.c. adipose tissue (subcutaneous fat) [4]: reduction in subcutaneous fat; also recorded: reduced
